Literature values, collected in patent US20020192834A1, “Analysis of caffeine” (priority 2001, published 2002).

Settings: after consuming caffeine in coffee; background statement

Cn1c(=O)c2c(ncn2C)n(C)c1=O [caffeine, trimethylxanthine]
half-life of caffeine: about 6 hours
